We go through eight molecules from patent publication US4001409A, “Injectable formulations of 7-[D-α-amino-α-(p-hydroxyphenyl)acetamido]-3-(1,2,3-triazol- 5-ylthiomethyl)-3-cephem-4-carboxylic acid” (priority 1975, dated 1977).

≈ marks a conversion by molar mass, not a printed value. Where “and” joins values, the source holds several entries; their conditions need not be identical. Equal values may be shown once. Where a name gives a salt, the structure may show the parent alone. Read-outs that look alike come from different tables or passages of the source. Some results are limits rather than exact numbers.

The subject of one series is Str. pyogenes A9604. The series is described as follows: Minimum Inhibitory Concentration, tube dilution. Format: cell-based. Particulars: Streptococcus pyogenes. The text has this: *50% Nutrient Broth - 45% Antibiotic Assay Broth
The next series has as its system S. aureus Smith A9537. The series is described as follows: Minimum Inhibitory Concentration, tube dilution. The format is cell-based. Particulars: Staphylococcus aureus, at 10^-^4 dilution, overnight, 37° C.
In another series the test system is S. aureus BX1633-2 A9606. Put plainly: Minimum Inhibitory Concentration, tube dilution. Format: cell-based. Particulars: Staphylococcus aureus.
The next series concerns Sal. enteritidis A9531. The series is described as follows: Minimum Inhibitory Concentration, tube dilution. Particulars: Salmonella enterica. Format: cell-based.
In the next series the test system is E. coli A9675. The series is described as follows: Minimum Inhibitory Concentration, tube dilution. Particulars: Escherichia coli. Format: cell-based.
The conditions of series [1]: known forms; cannot be administered intravenously; cited from earlier work.
The next series relates to Ps. aeruginosa A9843A. Put plainly: microbe, parasite or virus in culture. Particulars: Pseudomonas aeruginosa.
The nature of series [2]: Blood levels in mice after oral administration. Particulars: mouse, 100 mg/kg.
Another series has as its system D. pneumoniae A9585. Put plainly: Minimum Inhibitory Concentration, tube dilution. Particulars: Streptococcus pneumoniae.
In another series the test system is E. coli Juhl A15119. The series is described as follows: Minimum Inhibitory Concentration, tube dilution. Particulars: Escherichia coli, JUHLA15119.
A further series relates to K. pneumoniae A9977. The series is described as follows: Minimum Inhibitory Concentration, tube dilution. Particulars: Klebsiella pneumoniae.
The test system of a further series is K. pneumoniae A15130. The series is described as follows: Minimum Inhibitory Concentration, tube dilution. Particulars: Klebsiella pneumoniae.
Another series deals with Pr. mirabilis A9900. Put plainly: Minimum Inhibitory Concentration, tube dilution. Particulars: Proteus mirabilis.
The test system of another series is Pr. morganii A15153. Put plainly: Minimum Inhibitory Concentration, tube dilution. Particulars: Morganella morganii.
Another series has as its system Ser. marcescens A20019. The series is described as follows: Minimum Inhibitory Concentration, tube dilution. Particulars: Serratia marcescens.
The next series relates to Ent. cloacae A9656. Put plainly: Minimum Inhibitory Concentration, tube dilution. Particulars: Enterobacter cloacae.
The next series has as its system Ent. cloacae A9657. The series is described as follows: Minimum Inhibitory Concentration, tube dilution. Particulars: Enterobacter cloacae.
The next series relates to Ent. cloacae A9659. The series is described as follows: Minimum Inhibitory Concentration, tube dilution. Particulars: Enterobacter cloacae.
Series [3] is described as follows: Blood levels in mice after intramuscular administration. Particulars: mouse, im, 10 mg/kg.
Another series can be described thus: Heat stability of solids. Format: physicochemical. Particulars: for Stability (loss): 1 month at 56° C., 43800 min; for Heat stability (loss): Procedure D.
For the next series, the system named is vein and muscle. Particulars: in vivo.
The test system of series [4] is S. aureus meth.-resist. A15097. The series is described as follows: Minimum Inhibitory Concentration, tube dilution. Particulars: Staphylococcus aureus. Format: cell-based.
Series [5] is described as follows: Stability of aqueous solutions. Particulars: alkaline pH, i.e. pH~7.0 or higher. The format is physicochemical. An excerpt: A. Stability of Aqueous Solutions of Amorphous
Monohydrate and Sodium Levulinate Mixture at […]

Series [6] deals with Gram-positive and Gram-negative organisms. Particulars: oral and parenteral; cited from earlier work.
The nature of the next series: pH of solution. Format: physicochemical.
Another series is described as follows: physchem. Particulars: water.
Series [7] is described as follows: Solubility in water / concentration of true solutions.
Setting [8] is: +5% serum, 50% Nutrient Broth - 45% Antibiotic Assay Broth, overnight, 37° C., read-out: M.I.C.
Where [9] appears, read: BX16332A9606, at 10^-^2 dil'n, overnight, 37° C.
The mark [10] stands for this setting: at 10^-^4 dilution, overnight, 37° C., read-out: M.I.C.

Regarding `N[C@@H](C(=O)NC1C(=O)N2C(C(=O)O)=C(CSc3cnn[nH]3)CSC12)c1ccc(O)cc1` (stereo partly drawn) [Cephalosporin 1,2-propylene glycolate, 7-[D-α-amino-α-(p-hydroxyphenyl)acetamido]-3-(1,2,3-triazol-5-ylthiomethyl)-3-cephem-4-carboxylic acid 1,2-propylene glycolate], the Bio-assay in “Bio-assay” is listed as 880-890 units/mg. In addition, the MIC is 0.03 µg/mL (≈ 0.0649 µM) in the series on Str. pyogenes A9604 (setting [8]); 2 µg/mL (≈ 4.32 µM) in the series with S. aureus Smith A9537 (SMITHA9537, +50% serum); 0.25 µg/mL (≈ 0.541 µM) in the series with S. aureus Smith A9537 (SMITHA9537, read-out: M.I.C.); 2 µg/mL (≈ 4.32 µM) against S. aureus BX1633-2 A9606 (setting [9]); 0.5 µg/mL (≈ 1.08 µM) with S. aureus BX1633-2 A9606 (BX16332A9606, at 10^-^3 dil'n, overnight, 37° C.); 0.5 µg/mL (≈ 1.08 µM) against Sal. enteritidis A9531. Besides, the MIC with E. coli A9675 (setting [10]) was 4 µg/mL (≈ 8.65 µM); in the series on Ps. aeruginosa A9843A it was more than 125 µg/mL; against D. pneumoniae A9585 it was 0.13 µg/mL (≈ 0.281 µM); against E. coli Juhl A15119 it was 1 µg/mL (≈ 2.16 µM); in the series with K. pneumoniae A9977, 1 µg/mL (≈ 2.16 µM); against K. pneumoniae A15130 it was 2 µg/mL (≈ 4.32 µM). Further, the MIC with Pr. mirabilis A9900 is 0.5 µg/mL (≈ 1.08 µM); against Pr. morganii A15153, 32 µg/mL (≈ 69.2 µM); in the series with Ser. marcescens A20019, more than 125 µg/mL; in the series with Ent. cloacae A9656 it was more than 125 µg/mL; against Ent. cloacae A9657, 1 µg/mL (≈ 2.16 µM); against Ent. cloacae A9659, 32 µg/mL (≈ 69.2 µM). Further, the solubility in water result in [1] is on record as “relatively low solubility in water”. In addition, the concentration at 1 h was determined as 44700 ng/mL in [2] and 12300 ng/mL in [3]. Moreover, in [2], the concentration at 2 h worked out at 26600 ng/mL. In [2], this molecule had a concentration at 3.5 h of 9700 ng/mL. In addition, the concentration at 9.5 h in series [2] came out at 45800 ng/mL. The molecule also came in with a concentration at 0.5 h in [3] of 17400 ng/mL. This molecule also registered a concentration at 1.5 h in series [3] of 9000 ng/mL.

`N[C@@H](C(=O)NC1C(=O)N2C(C(=O)O)=C(CSc3cnn[nH]3)CSC12)c1ccc(O)cc1` (stereo partly drawn) [amorphous mono-hydrochloride, 7[D-α-amino-α-(p-hydroxyphenyl)acetamido]-3-(1,2,3-triazol-5-ylthiomethyl)-3-cephem-4-carboxylic acid amorphous mono-hydrochloride]: the “Stability (loss)” value in “Heat stability of solids” (Procedure Da) and in the series “Heat stability of solids” (Procedure Db) was “Less than 10%” in each case. The “Heat stability (loss)” value in “Heat stability of solids” (56° C., 4 weeks, 40320 min) is 1-6%; in “Heat stability of solids” (100° C., 24 hours) it was 7-14%; in “Heat stability of solids” (100° C., 48 hours), 10-15%. Besides, in the series “Bio-assay” (mono-hydrochloride), the Bio-assay was 900 µg/mg and 820 to 850 µg/mg. Also, in the series with vein and muscle, the “venous irritation and muscle damage” value is “significant venous irritation and muscle damage”.

As for `N[C@@H](C(=O)NC1C(=O)N2C(C(=O)O)=C(CSc3cnn[nH]3)CSC12)c1ccc(O)cc1` (stereo partly drawn) [amorphous monohydrate, 7-[D-α-amino-α-(p-hydroxyphenyl)acetamido]-3-(1,2,3-triazol-5-ylthiomethyl)-3-cephem-4-carboxylic acid amorphous monohydrate], the Bio-assay in “Bio-assay” (monohydrate) was 900-935 units/mg.

`CC(=O)OCC1=C(C(=O)O)N2C(=O)[C@@H](NC(=O)Cc3cccs3)[C@H]2SC1` [Cephalothin]: the MIC with Str. pyogenes A9604 (setting [8]) came out at 0.06 µg/mL (≈ 0.151 µM); against S. aureus Smith A9537 (SMITHA9537, +50% serum) it was 0.5 µg/mL (≈ 1.26 µM); with S. aureus BX1633-2 A9606 (BX16332A9606) it was 0.25 µg/mL (≈ 0.631 µM); against S. aureus BX1633-2 A9606 (setting [9]) it was 0.25 µg/mL (≈ 0.631 µM); in [4], 4 µg/mL (≈ 10.1 µM); in [4] (at 10^-^3 dil'n, 37° C), 1 µg/mL (≈ 2.52 µM). The MIC is 0.06 µg/mL (≈ 0.151 µM) in the series with Sal. enteritidis A9531 (setting [10]); 32 µg/mL (≈ 80.7 µM) against E. coli A9675; more than 125 µg/mL in the series with Ps. aeruginosa A9843A; 8 µg/mL (≈ 20.2 µM) in the series with E. coli Juhl A15119; 2 µg/mL (≈ 5.04 µM) in the series on K. pneumoniae A9977; 16 µg/mL (≈ 40.4 µM) against K. pneumoniae A15130. Besides, the MIC in the series with Pr. mirabilis A9900 was 1 µg/mL (≈ 2.52 µM); in the series on Pr. morganii A15153 it was more than 125 µg/mL; against Ser. marcescens A20019, more than 125 µg/mL; against Ent. cloacae A9656 it was more than 125 µg/mL; against Ent. cloacae A9657, 2 µg/mL (≈ 5.04 µM); in the series on Ent. cloacae A9659, more than 125 µg/mL.

Take `N[C@@H](C(=O)NC1C(=O)N2C(C(=O)O)=C(CSc3cnn[nH]3)CS[C@H]12)c1ccc(O)cc1` (stereo partly drawn) [compound I, 7-[D-α-amino-α-(p-hydroxyphenyl)acetamido]-3-(1,2,3-triazol-5-ylthiomethyl)-3-cephem-4-carboxylic acid]: the “splitting off of the triazole moiety at the 3-position” value in series [5] was “found to split off rapidly at alkaline pH”. Besides, in [1], the solubility in water result is “relatively low solubility in water”. Besides, in series [6], the “therapeutic effectiveness against infections” value was “therapeutically effective against infections caused by both Gram-positive and Gram-negative organisms”.

With `CC(=O)CCC(=O)[O-].[Na+]` [sodium levulinate], the pH in “pH of solution” is given as 6.5-8.0. In addition, the solubility in “physchem” is more than 300 mg/mL.

With `CC1=C(C(=O)O)N2C(=O)[C@@H](NC(=O)[C@H](N)c3ccccc3)[C@H]2SC1` [Cephalexin], the MIC against Str. pyogenes A9604 is 0.5 µg/mL (≈ 1.44 µM); with S. aureus Smith A9537 (SMITHA9537, +50% serum, read-out: M.I.C.) it was 2 µg/mL (≈ 5.76 µM); in the series with S. aureus Smith A9537 (SMITHA9537, read-out: M.I.C.), 1 µg/mL (≈ 2.88 µM); in the series with S. aureus BX1633-2 A9606 (BX16332A9606, at 10^-^3 dil'n, overnight, 37° C., read-out: M.I.C.), 2 µg/mL (≈ 5.76 µM); in series [4] (at 10^-^3 dil'n, 37° C), 16 µg/mL (≈ 46.1 µM); in series [4] (at 10^-^3 dil'n, 28° C, read-out: M.I.C.), 32 µg/mL (≈ 92.1 µM). Further, the MIC against Sal. enteritidis A9531 was 4 µg/mL (≈ 11.5 µM); against E. coli A9675, 16 µg/mL (≈ 46.1 µM); with D. pneumoniae A9585, 1 µg/mL (≈ 2.88 µM); against E. coli Juhl A15119 it was 8 µg/mL (≈ 23 µM); in the series with K. pneumoniae A9977, 4 µg/mL (≈ 11.5 µM); in the series on K. pneumoniae A15130, 8 µg/mL (≈ 23 µM). The MIC is 4 µg/mL (≈ 11.5 µM) with Pr. mirabilis A9900; more than 125 µg/mL in the series with Ser. marcescens A20019; more than 125 µg/mL with Ent. cloacae A9656; 4 µg/mL (≈ 11.5 µM) against Ent. cloacae A9657; more than 125 µg/mL in the series on Ent. cloacae A9659.

Turning to `CC(=O)C(=O)[O-].[Na+]` [sodium pyruvate], in the series “pH of solution”, the pH is 6.5-8.0. The molecule further registered a solubility in series [7] of more than 500 mg/mL.
